These results are taken from publication PMC12428139, “The Functional State of Thermoplasma acidophilum Pyruvate Kinase Relies on an Extra Carboxyl-Terminal Sequence” (International Journal of Molecular Sciences, 2025).

Where “and” joins values, the source holds several entries; their conditions need not be identical. Equal entries are not always repeated. Where two headings read alike, the source gives them in different places.

In one series the target is T1, WT-ThaPK (Thermoplasma acidophilum, UniProt P32044).
T1 construct: gene Ta0896; full length (1635 bp gene, 544 residues), N-terminal His6 tag and thrombin site (20 residues) kept, pET15b, E. coli BL21(DE3) Codon Plus-RIL
Kind of series: LDH/NADH coupled assay, dead-end inhibition, global fit. It counts as biochemical. An excerpt:
LDH/NADH coupled assay, dead-end inhibition, global fit on WT-ThaPK

For series [1], the target named is ECTS truncated-ThaPK (Thermoplasma acidophilum pyruvate kinase lacking the extra C-terminal sequence) (Thermoplasma acidophilum) (UniProt P32044). Kind of series: native gel or EMSA; 1D Blue Native PAGE, linear 4-18% acrylamide gradient, 4 °C, 50 µg protein per well; bands excised and resolved by 2D SDS-PAGE; masses from regression on standards, triplicate gels. For orientation: Mobility shift assays separate free from complexed probe on a gel.

Series [2] concerns the molecule itself. Nature of the series: SEC; Superdex 200 (10/300), 50 mM HEPES pH 7.5, 150 mM NaCl, 500 µg of enzyme loaded, calibrated with BIORAD gel filtration standards. Background: In gel filtration, larger molecules generally elute earlier.

For orientation: Ki means a measure of affinity in units of concentration, obtained from inhibition or displacement. Take `Nc1ncnc2c1ncn2[C@@H]1O[C@H](COP(=O)(O)O)[C@@H](O)[C@H]1O` [AMP]: the inhibition constant Ki at WT-ThaPK (read-out: Ki (AMP)) is 3300 ± 300 µM.
On to `O=C(O)C(=O)O` [oxalate], for which, on WT-ThaPK (read-out: Ki (Oxalate)), the Ki was found to be 44 ± 1 µM.
A word on the stoichiometry N: it is a count of units in the complex or per binding partner. Consider “ECTS truncated-ThaPK (Thermoplasma acidophilum pyruvate kinase lacking the extra C-terminal sequence) (from UniProt P32044 1-450) (domain or fragment)”, for which the stoichiometry N in series [1] was 2 and 3.

B1: Thermoplasma acidophilum pyruvate kinase, wild type (WT-ThaPK) (enzyme, UniProt P32044 1-544, looked up)
chain: MKTKIVATIGPASSSPEIMKQMIDNGLSLVRINSAHADIKDVSKITQMVRSINRDVGIMIDLKGPELRTGEFAGGTLKISSGKDYVMGKDIVLNNMNVLSAVQVGDRILMSDGEVSFEVESTDPFTIRALNDGVLRDRSRVNIPGRFIELGTITDRDRAFIREGIADGVDFFALSFVQKSENVDSLRDFVIDSGGDQYIISKIETKSGLDNIEEIVKSSDGIMVARGDLGVELPLKEVVLAQKHIIKTAHEDGDFTIVATQVLESMVNNSSPTRAEISDITNAIIDNADALMLSEESAIGKYPVQAVRTLKEVSDYVEDKVSFDSSYYFKGNTIAYSVARAAKILSDDIKSDGIVALTHTGSTVRMISSLRPKAMVYAATVSESLARKLNIYFGVLPLHMEGNAEDLSFSEIMEYIVRSGRFADGSKLVMTSGDPYFTFGGTNDVKVAVVGKFIGRGYSFGDSLSGTATYGTKGDILMSEDGRIPGTDFRAFIFTSDIKPSLMSSLKGKTVVTKARLVRQIKEGERIYIDGNTGIILMASPDQK
notes: pyruvate kinase of Thermoplasma acidophilum; synthetic gene of 1635 bp cloned NdeI/BamHI in pET15b; last residue K544; monomer 59,147.48 Da plus 20 extra residues (His6 tag and thrombin site, 2193.26 Da) that thrombin could not cleave; The 20 additional N-terminal residues from pET15b (His6 tag and thrombin cleavage site) stayed on the protein in all experiments; also called wild-type enzyme; …
As for B1, the “stoichiometry N” value in series [2] was determined as 4.
